# Experimental data reported in PubChem BioAssay (NCI).
#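 Grown in 96-well plates, cells were treated for 48 hours with each compound at five concentrations. Insufficient inhibition: endpoint recorded as highest concentration tested. At the GI50, growth is halved. TGI denotes the concentration required for complete inhibition of growth.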
# Tests used:
# Assay in all cases: growth of human tumour cells (NCI), 48 h
# [1] = tested on: SW-620 colon
# [2] = tested on: SF-268 CNS
# [3] = tested on: A549 NSCLC
# [4] = tested on: SK-MEL-28 melanoma
# [5] = tested on: ACHN renal
# [6] = tested on: RPMI-8226 leukemia
# [7] = tested on: CCRF-CEM leukemia
# [8] = tested on: U251 CNS
# [9] = tested on: MDA-MB-231 breast
# [10] = tested on: DU-145 prostate
# [11] = tested on: HCC-2998 colon
# [12] = tested on: EKVX NSCLC
# [13] = tested on: OVCAR-5 ovarian
# [14] = tested on: NCI-H23 lung
# [15] = tested on: COLO 205 colon
# [16] = tested on: HOP-92 NSCLC
# [17] = tested on: SNB-19 CNS
# [18] = tested on: NCI-H460 lung
# [19] = tested on: NCI-H522 lung
# [20] = tested on: OVCAR-3 ovarian
# [21] = tested on: UACC-62 melanoma
# [22] = tested on: KM12 colon
# [23] = tested on: LOX IMVI melanoma
# [24] = tested on: MDA-MB-435
# [25] = tested on: PC-3 prostate
# [26] = tested on: SF-295 CNS
# [27] = tested on: HT29 colon
# [28] = tested on: HCT-116 colon
# [29] = tested on: UO-31 renal
# [30] = tested on: OVCAR-8 ovarian
# [31] = tested on: SF-539 CNS
# [32] = tested on: IGROV1 ovarian
# [33] = tested on: MOLT-4 leukemia
# [34] = tested on: NCI/ADR-RES ovarian
# [35] = tested on: A498 renal
# [36] = tested on: SN12C renal
# [37] = tested on: TK-10 renal
# [38] = tested on: HCT-15 colon
# [39] = tested on: CAKI-1 renal
# [40] = tested on: NCI-H226 lung
# [41] = tested on: BT-549 breast
# [42] = tested on: T-47D breast
# [43] = tested on: MALME-3M melanoma
# [44] = tested on: M14 melanoma
# [45] = tested on: SK-OV-3 ovarian
# [46] = tested on: 786-0 renal
# [47] = tested on: HS 578T breast
# [48] = tested on: UACC-257 melanoma
# [49] = tested on: SK-MEL-5 melanoma
# [50] = tested on: K-562 leukemia
# [51] = tested on: SR leukemia
# [52] = tested on: MCF7 breast
# [53] = tested on: HOP-62 NSCLC
# [54] = tested on: HL-60(TB) leukemia
# [55] = tested on: OVCAR-4 ovarian
# [56] = tested on: SNB-75 CNS
smiles,measurement,setting,value
CC12CC[C@@H]3c4cc5c(cc4CC[C@H]3[C@@H]1CCC2O)oc1cc(F)ccc15 (stereo partly specified),GI50,[1],25.6 µM
same,TGI,[1],78.9 µM
same,GI50,[2],18.8 µM
same,TGI,[2],62.8 µM
same,GI50,[3],33.1 µM
same,TGI,[3],> 100 µM
same,GI50,[4],20.2 µM
same,TGI,[4],58.8 µM
same,GI50,[5],15.8 µM
same,TGI,[5],35.4 µM
same,GI50,[6],14.6 µM
same,TGI,[6],> 100 µM
same,GI50,[7],27.9 µM
same,TGI,[7],> 100 µM
same,GI50,[8],14.1 µM
same,TGI,[8],28.6 µM
same,GI50,[9],14.1 µM
same,TGI,[9],34 µM
same,GI50,[10],17.8 µM
same,TGI,[10],31.6 µM
same,GI50,[11],23.2 µM
same,TGI,[11],> 100 µM
same,GI50,[12],15.5 µM
same,TGI,[12],49 µM
same,GI50,[13],24.8 µM
same,TGI,[13],> 100 µM
same,GI50,[14],26.1 µM
same,TGI,[14],99.5 µM
same,GI50,[15],17.1 µM
same,TGI,[15],36.2 µM
same,GI50,[16],21.1 µM
same,TGI,[16],63 µM
same,GI50,[17],19 µM
same,TGI,[17],40.9 µM
same,GI50,[18],15.2 µM
same,TGI,[18],36.3 µM
same,GI50,[19],23.2 µM
same,TGI,[19],> 100 µM
same,GI50,[20],19.1 µM
same,TGI,[20],43.3 µM
same,GI50,[21],24.4 µM
same,TGI,[21],> 100 µM
same,GI50,[22],17.8 µM
same,TGI,[22],45.5 µM
same,GI50,[23],12.1 µM
same,TGI,[23],24.5 µM
same,GI50,[24],39.5 µM
same,TGI,[24],> 100 µM
same,GI50,[25],17.3 µM
same,TGI,[25],43.2 µM
same,GI50,[26],18.3 µM
same,TGI,[26],40.2 µM
same,GI50,[27],12.5 µM
same,TGI,[27],25 µM
same,GI50,[28],13.9 µM
same,TGI,[28],30.6 µM
same,GI50,[29],24.3 µM
same,TGI,[29],68 µM
same,GI50,[30],20 µM
same,TGI,[30],62.6 µM
same,GI50,[31],22.7 µM
same,TGI,[31],54.7 µM
same,GI50,[32],16.7 µM
same,TGI,[32],36.9 µM
same,GI50,[33],16.2 µM
same,TGI,[33],40.6 µM
same,GI50,[34],18.6 µM
same,TGI,[34],55.5 µM
same,TGI,[35],23.6 µM
same,GI50,[36],19 µM
same,TGI,[36],42.5 µM
same,GI50,[37],15.6 µM
same,TGI,[37],33.9 µM
same,GI50,[38],10.8 µM
same,TGI,[38],31.8 µM
same,GI50,[39],16.1 µM
same,TGI,[39],37.4 µM
same,GI50,[40],14.9 µM
same,TGI,[40],53 µM
same,GI50,[41],17.7 µM
same,TGI,[41],39.1 µM
same,GI50,[42],12.3 µM
same,TGI,[42],52.6 µM
same,GI50,[43],20.3 µM
same,TGI,[43],49.8 µM
same,GI50,[44],20.8 µM
same,TGI,[44],74.1 µM
same,GI50,[45],21.5 µM
same,TGI,[45],52.1 µM
same,GI50,[46],16.1 µM
same,TGI,[46],37.4 µM
same,GI50,[47],26.3 µM
same,TGI,[47],49.6 µM
same,GI50,[48],21.6 µM
same,TGI,[48],74.8 µM
same,GI50,[49],18.8 µM
same,TGI,[49],36 µM
same,GI50,[50],8.68 µM
same,TGI,[50],47.7 µM
same,GI50,[51],15.9 µM
same,TGI,[51],31 µM
same,GI50,[52],31.7 µM
same,TGI,[52],82.7 µM
same,GI50,[53],18.7 µM
same,TGI,[53],45.4 µM
same,GI50,[54],7.74 µM
same,TGI,[54],39.2 µM
same,GI50,[55],17 µM
same,TGI,[55],55.6 µM
same,GI50,[56],15.5 µM
same,TGI,[56],35.5 µM
